ChEMBL document CHEMBL5634099, “Pyrrole-thiazolidinone hybrids as a new structural class of broad-spectrum anti-infectives” (Eur J Med Chem, 2023)
Values after ≈ are worked out from the molar mass of the structure shown.

Tests used:
Format in all cases: functional
[1] = test system: Mycolicibacterium fortuitum; assay: Antimycobacterial activity against Mycobacterium fortuitum ATCC 6841 assessed as bacterial growth inhibition incubated for 7 days by resazurin dye based assay; conditions: ATCC 6841, 168 h, time 7 day
Mycobacteroides chelonae = assay: Antimycobacterial activity against Mycobacteroides chelonae ATCC 35752 assessed as bacterial growth inhibition incubated for 7 days by resazurin dye based assay; conditions: ATCC 35752, 168 h, time 7 day
Staphylococcus aureus = assay: Antibacterial activity against Staphylococcus aureus ATCC 29213 assessed as bacterial growth inhibition incubated for 16 to 18 hrs by CLSI based susceptibility testing method; conditions: time 16-18 hrs
[2] = test system: Mycobacterium tuberculosis; assay: Antimycobacterial activity against Mycobacterium tuberculosis H37Rv ATCC 27294 assessed as bacterial growth inhibition incubated for 7 days by resazurin dye based assay; conditions: H37Rv ATCC 27294, 168 h, time 7 day
Pseudomonas aeruginosa = assay: Antibacterial activity against Pseudomonas aeruginosa ATCC 27853 assessed as bacterial growth inhibition incubated for 16 to 18 hrs by CLSI based susceptibility testing method; conditions: time 16-18 hrs
Escherichia coli = assay: Antibacterial activity against Escherichia coli ATCC 25922 assessed as bacterial growth inhibition incubated for 16 to 18 hrs by CLSI based susceptibility testing method; conditions: time 16-18 hrs
[3] = test system: Mycobacteroides abscessus; assay: Antimycobacterial activity against Mycobacterium abscessus ATCC 19977 assessed as bacterial growth inhibition incubated for 7 days by resazurin dye based assay; conditions: ATCC 19977, 168 h, time 7 day
Klebsiella pneumoniae = assay: Antibacterial activity against Klebsiella pneumoniae BAA 1705 assessed as bacterial growth inhibition incubated for 16 to 18 hrs by CLSI based susceptibility testing method; conditions: time 16-18 hrs
Acinetobacter baumannii = assay: Antibacterial activity against Acinetobacter baumannii BAA 1605 assessed as bacterial growth inhibition incubated for 16 to 18 hrs by CLSI based susceptibility testing method; conditions: time 16-18 hrs

| SMILES | MIC [1] [µg/mL] | MIC (Mycobacteroides chelonae) [µg/mL] | MIC (Staphylococcus aureus) [µg/mL] | MIC [2] [µg/mL] | MIC (Pseudomonas aeruginosa) [µg/mL] | MIC (Escherichia coli) [µg/mL] | MIC [3] [µg/mL] | MIC (Klebsiella pneumoniae) [µg/mL] | MIC (Acinetobacter baumannii) [µg/mL] |
| --- | --- | --- | --- | --- | --- | --- | --- | --- | --- |
| Cc1cc(/C=C2\S/C(=N/c3nccs3)NC2=O)c(C)n1-c1ccc(Cl)cc1 | > 64 | > 64 | 4 (≈ 9.64 µM) | 8 (≈ 19.3 µM) | > 64 | > 64 | > 64 | > 64 | > 64 |
| Cc1cc(/C=C2\S/C(=N/c3nccs3)NC2=O)c(C)n1-c1cccc(Cl)c1 | > 64 | > 64 | 8 (≈ 19.3 µM) | > 64 | > 64 | > 64 | > 64 | > 64 | > 64 |
| Cc1ccc(-n2c(C)cc(/C=C3\S/C(=N/c4nccs4)NC3=O)c2C)cc1 | > 64 | > 64 | 4 (≈ 10.1 µM) | 8 (≈ 20.3 µM) | > 64 | > 64 | > 64 | > 64 | > 64 |
| Cc1cc(/C=C2\S/C(=N/c3nccs3)NC2=O)c(C)n1-c1ccc(C#N)c(Cl)c1 | > 64 | > 64 | > 64 | 16 (≈ 36.4 µM) | > 64 | > 64 | > 64 | > 64 | > 64 |
| Cc1nc(/N=C2\NC(=O)/C(=C/c3cc(C)n(-c4ccc([N+](=O)[O-])cc4)c3C)S2)sc1C | > 64 | > 64 | > 64 | > 64 | > 64 | > 64 | > 64 | > 64 | > 64 |
| Cc1nc(/N=C2\NC(=O)/C(=C/c3cc(C)n(-c4ccc(Cl)cc4)c3C)S2)sc1C | > 64 | > 64 | > 64 | > 64 | > 64 | > 64 | > 64 | > 64 | > 64 |
| Cc1ccc(-n2c(C)cc(/C=C3\S/C(=N/c4nc(C)c(C)s4)NC3=O)c2C)cc1 | > 64 | > 64 | > 64 | > 64 | > 64 | > 64 | > 64 | > 64 | > 64 |
| COc1ccc(-n2c(C)cc(/C=C3\S/C(=N/c4nc(C)c(C)s4)NC3=O)c2C)cc1 | > 64 | > 64 | > 64 | > 64 | > 64 | > 64 | > 64 | > 64 | > 64 |
| COc1ccc(-n2c(C)cc(/C=C3\S/C(=N/c4nccs4)NC3=O)c2C)cc1 | > 64 | > 64 | 2 (≈ 4.87 µM) | 64 (≈ 156 µM) | > 64 | > 64 | > 64 | > 64 | > 64 |
| Cc1cc(/C=C2\S/C(=N/c3nccs3)NC2=O)c(C)n1-c1ccccc1Cl | > 64 | > 64 | 4 (≈ 9.64 µM) | 16 (≈ 38.6 µM) | > 64 | > 64 | > 64 | > 64 | > 64 |
| Cc1cc(/C=C2\S/C(=N/c3nccs3)NC2=O)c(C)n1-c1ccccc1 | > 64 | > 64 | 2 (≈ 5.26 µM) | 8 (≈ 21 µM) | > 64 | > 64 | > 64 | > 64 | > 64 |
| Cc1cc(/C=C2\S/C(=N/c3nccs3)NC2=O)c(C)n1-c1ccc(F)cc1 | > 64 | > 64 | > 64 | 4 (≈ 10 µM) | > 64 | > 64 | > 64 | > 64 | > 64 |
| COc1ccc(-n2c(C)cc(/C=C3\S/C(=N/c4nccs4)NC3=O)c2C)cc1OC | > 64 | > 64 | 4 (≈ 9.08 µM) | 8 (≈ 18.2 µM) | > 64 | > 64 | > 64 | > 64 | > 64 |
| Cc1nc(/N=C2\NC(=O)/C(=C/c3cc(C)n(-c4cc(Cl)ccc4O)c3C)S2)sc1C | > 64 | > 64 | 64 (≈ 139 µM) | > 64 | > 64 | > 64 | > 64 | > 64 | > 64 |
| Cc1cc(/C=C2\S/C(=N/c3nccs3)NC2=O)c(C)n1-c1cc(Cl)ccc1O | > 64 | > 64 | 1 (≈ 2.32 µM) | 32 (≈ 74.3 µM) | > 64 | > 64 | > 64 | > 64 | > 64 |
